Laboratory results published in patent US12344610B2, “APOL1 inhibitors and methods of use” (Maze Therapeutics, Inc., priority 2022, dated 2025).

Legend:
Format in all cases: cell-based
[1] = tested on: Trypanosoma brucei Lister 427 VSG221 with APOL1 G0 recombinant protein; assay: APOL1 G0 trypanosome cell rescue assay (Example B5); conditions: Trypanosoma brucei, 20 h, read-out: APOL1 G0 Trypanosome Rescue EC50, Trypanosoma brucei Lister 427 VSG221 with APOL1 G0 recombinant protein, 20 hours, CellTiter-Glo; geometric mean of at least 2 assay runs; † = single assay run
Outline: (§1)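 Recombinant mature APOL1 (residues 28-398, His-tag removed, E. coli-expressed, refolded from inclusion bodies, DDM buffer) at […] added with 250 trypanosomes/well in modified HMI-9 media. Duplicate 11-point 2-fold compound series, 0.4% DMSO; 20 h at 37° C, 5% CO2, then CellTiter-Glo luminescence for viability.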

[2] = tested on: HEK293 clonal cell line overexpressing APOL1 G1; assay: APOL1 G1 HEK293 cell rescue assay (Example B3); conditions: Homo sapiens, HEK293, HEK293 clonal line overexpressing APOL1 G1; geometric mean of at least 2 runs; † = single run; ¥ = concentration at 50% rescue estimated (no sigmoidal curve)
Outline: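 HEK293 clonal line overexpressing APOL1 G1; EC50 is half-maximal reversal of APOL1-induced cell death. Values are the geometric mean of ≥2 runs on separate days, each run the average of duplicate wells. Where no sigmoidal curve could be fitted, the concentration giving 50% rescue was estimated.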

[3] = tested on: Trypanosoma brucei Lister 427 VSG221 with APOL1 G1 recombinant protein; assay: APOL1 G1 trypanosome cell rescue assay (Example B5); conditions: Trypanosoma brucei, 20 h, read-out: APOL1 G1 Trypanosome Rescue EC50, Trypanosoma brucei Lister 427 VSG221 with APOL1 G1 recombinant protein, 20 hours, CellTiter-Glo; geometric mean of at least 2 assay runs; † = single assay run
Outline: as §1

Row | Compound | EC50 [1] | EC50 [2] | EC50 [3]
1 | CC(=O)N1Cc2ccc(OCCN3CCC4(CC3)C(=O)Nc3ccc(Cl)cc34)cc2C1 [Compound 57, 1′-{2-[(2-acetyl-2,3-dihydro-1H-isoindol-5-yl)oxy]ethyl}-5-chloro-1,2-dihydrospiro[indole-3,4′-piperidin]-2-one] | 673 nM | 390 nM | 672 nM
2 | CNC(=O)N1CCCc2cc(OCCN3CCC4(CC3)C(=O)Nc3ccc(Cl)cc34)ccc21 [Compound 60, 6-(2-{5-chloro-2-oxo-1,2-dihydrospiro[indole-3,4′-piperidin]-1′-yl}ethoxy)-N-methyl-1,2,3,4-tetrahydroquinoline-1-carboxamide] | 189 nM | 183 nM | 228 nM
3 | O=C1Nc2ccc(Cl)cc2C12CCN(CCOc1ccc3nccnc3c1)CC2 [Compound 62, 5-chloro-1′-[2-(quinoxalin-6-yloxy)ethyl]-1,2-dihydrospiro[indole-3,4′-piperidin]-2-one] | 407 nM | 433 nM | 390 nM
4 | CS(=O)(=O)c1ccc(OCCN2CCC3(CC2)C(=O)Nc2ccc(Cl)cc23)cc1F [Compound 63, 5-chloro-1′-[2-(3-fluoro-4-methanesulfonylphenoxy)ethyl]-1,2-dihydrospiro[indole-3,4′-piperidin]-2-one] | 118 nM | 160 nM | 164 nM
5 | CS(=O)(=O)c1ccc(OCCN2CCC3(CC2)C(=O)Nc2ccc(Cl)cc23)cn1 [Compound 64, 5-chloro-1′-{2-[(6-methanesulfonylpyridin-3-yl)oxy]ethyl}-1,2-dihydrospiro[indole-3,4′-piperidin]-2-one] | 503 nM | 516 nM | 712 nM
6 | CN1C(=O)Cc2cc(OCCN3CCC4(CC3)C(=O)Nc3ccc(Cl)cc34)ccc21 [Compound 65, 5-chloro-1′-{2-[(1-methyl-2-oxo-2,3-dihydro-1H-indol-5-yl)oxy]ethyl}-1,2-dihydrospiro[indole-3,4′-piperidin]-2-one] | 318 nM | 351 nM | 294 nM
7 | Cc1ccc2c(c1)C1(CCN(CCOc3ccc(S(C)(=O)=O)cc3)CC1)C(=O)N2 [Compound 66, 1′-[2-(4-methanesulfonylphenoxy)ethyl]-5-methyl-1,2-dihydrospiro[indole-3,4′-piperidin]-2-one] | 246 nM | 323 nM | 322 nM
8 | Cn1ncc2cc(OCCN3CCC4(CC3)C(=O)Nc3ccc(Cl)cc34)ccc21 [Compound 68, 5-chloro-1′-{2-[(1-methyl-1H-indazol-5-yl)oxy]ethyl}-1,2-dihydrospiro[indole-3,4′-piperidin]-2-one] | 358 nM | 368 nM | 441 nM
9 | CS(=O)(=O)c1ccc(OCCN2CCC3(CC2)C(=O)Nc2ccc(Cl)cc23)cc1 [Compound 69, 5-chloro-1′-[2-(4-methanesulfonylphenoxy)ethyl]-1,2-dihydrospiro[indole-3,4′-piperidin]-2-one] | 153 nM | 311 nM | 184 nM
10 | Cn1ncc2cc(OCCN3CCC4(CC3)C(=O)Nc3ccccc34)ccc21 [Compound 70, 1′-{2-[(1-methyl-1H-indazol-5-yl)oxy]ethyl}-1,2-dihydrospiro[indole-3,4′-piperidin]-2-one] | > 4000 nM | > 2530 nM | > 4000 nM
11 | CS(=O)(=O)c1ccc(OCCN2CCC3(CC2)C(=O)Nc2ccc(C#N)cc23)cc1 [Compound 71, 1′-[2-(4-methanesulfonylphenoxy)ethyl]-2-oxo-1,2-dihydrospiro[indole-3,4′-piperidine]-5-carbonitrile] | 814 nM | 1340 nM | 1360 nM
12 | CS(=O)(=O)c1ccc(OCCN2CCC3(CC2)C(=O)Nc2ccc(Br)cc23)cc1 [Compound 72, 5-bromo-1′-[2-(4-methanesulfonylphenoxy)ethyl]-1,2-dihydrospiro[indole-3,4′-piperidin]-2-one] | 128 nM | 161 nM | 177 nM
13 | CN(c1ccc(OCCN2CCC3(CC2)C(=O)Nc2ccc(C#N)cc23)cc1)S(C)(=O)=O [Compound 75, N-[4-(2-{5-cyano-2-oxo-1,2-dihydrospiro[indole-3,4′-piperidin]-1′-yl}ethoxy)phenyl]-N-methylmethanesulfonamide] | 383 nM | 406 nM | 578 nM
14 | CN(c1ccc(OCCN2CCC3(CC2)C(=O)Nc2ccc(Cl)cc23)cc1)S(C)(=O)=O [Compound 76, N-[4-(2-{5-chloro-2-oxo-1,2-dihydrospiro[indole-3,4′-piperidin]-1′-yl}ethoxy)phenyl]-N-methylmethanesulfonamide] | 106 nM | 190 nM | 126 nM
15 | CS(C)(=O)=Nc1ccc(OCCN2CCC3(CC2)C(=O)Nc2ccc(C#N)cc23)cc1 [Compound 77, 1′-[2-(4-{[dimethyl(oxo)-λ^6-sulfanylidene]amino}phenoxy)ethyl]-2-oxo-1,2-dihydrospiro[indole-3,4′-piperidine]-5-carbonitrile] | > 4000 nM | > 4760 nM | > 4000 nM
16 | CN1C(=O)CCc2cc(OCCN3CCC4(CC3)C(=O)Nc3ccc(Cl)cc34)cnc21 [Compound 78, 5-chloro-1′-{2-[(8-methyl-7-oxo-5,6,7,8-tetrahydro-1,8-naphthyridin-3-yl)oxy]ethyl}-1,2-dihydrospiro[indole-3,4′-piperidin]-2-one] | 95.2 nM | 128 nM | 97.6 nM
17 | CN1C(=O)CCc2cc(OCCN3CCC4(CC3)C(=O)Nc3ccc(C#N)cc34)cnc21 [Compound 79, 1′-{2-[(8-methyl-7-oxo-5,6,7,8-tetrahydro-1,8-naphthyridin-3-yl)oxy]ethyl}-2-oxo-1,2-dihydrospiro[indole-3,4′-piperidine]-5-carbonitrile] | 846 nM | 533 nM | 952 nM
18 | CC(C)[C@]1(O)C[C@@H](N2C(=O)CCc3cc(OCCN4CCC5(CC4)C(=O)Nc4ccc(Cl)cc45)cnc32)C1 [Compound 317, 5-chloro-1′-[2-({7-oxo-8-[(cis)-3-hydroxy-3-(propan-2-yl)cyclobutyl]-5,6,7,8-tetrahydro-1,8-naphthyridin-3-yl}oxy)ethyl]-1,2-dihydrospiro[indole-3,4′-piperidin]-2-one] | 33 nM | 45.6 nM | 33.5 nM
19 | C[C@]1(O)C[C@@H](n2c(=O)ccc3cc(OCCN4CCC5(CC4)C(=O)Nc4ccc(Cl)cc45)cnc32)C1 [Compound 323, 5-chloro-1′-[2-({7-oxo-8-[(cis)-3-hydroxy-3-methylcyclobutyl]-7,8-dihydro-1,8-naphthyridin-3-yl}oxy)ethyl]-1,2-dihydrospiro[indole-3,4′-piperidin]-2-one] | 32 nM | 36.4 nM | 35.9 nM
20 | C[C@]1(O)C[C@@H](n2c(=O)ccc3cc(OCCN4CCC5(CC4)C(=O)Nc4ccc(C(F)F)cc45)cnc32)C1 [Compound 324, 5-(difluoromethyl)-1′-[2-({7-oxo-8-[(cis)-3-hydroxy-3-methylcyclobutyl]-7,8-dihydro-1,8-naphthyridin-3-yl}oxy)ethyl]-1,2-dihydrospiro[indole-3,4′-piperidin]-2-one] | 28.9 nM | 40.8 nM | 35 nM
21 | O=C1CCc2cc(OCCN3CCC4(CC3)C(=O)Nc3ccc(Cl)cc34)cnc2N1C1CC(CO)C1 (stereo not drawn) [Compound 326, 5-chloro-1′-[2-({8-[3-(hydroxymethyl)cyclobutyl]-7-oxo-5,6,7,8-tetrahydro-1,8-naphthyridin-3-yl}oxy)ethyl]-1,2-dihydrospiro[indole-3,4′-piperidin]-2-one] | 88.6 nM | 104 nM | 94.4 nM
22 | CC1(O)CC(CN2C(=O)CCc3cc(OCCN4CCC5(CC4)C(=O)Nc4ccc(Cl)cc45)cnc32)C1 (stereo not drawn) [Compound 327, 5-chloro-1′-[2-({8-[(3-hydroxy-3-methylcyclobutyl)methyl]-7-oxo-5,6,7,8-tetrahydro-1,8-naphthyridin-3-yl}oxy)ethyl]-1,2-dihydrospiro[indole-3,4′-piperidin]-2-one] | 39.9 nM | 84.4 nM | 46.6 nM
23 | C[C@]1(O)C[C@@H](n2c(=O)ccc3cc(OCCN4CCC5(CC4)C(=O)Nc4ccc(OC(F)F)cc45)cnc32)C1 [Compound 328, 5-(difluoromethoxy)-1′-[2-({7-oxo-8-[(cis)-3-hydroxy-3-methylcyclobutyl]-7,8-dihydro-1,8-naphthyridin-3-yl}oxy)ethyl]-1,2-dihydrospiro[indole-3,4′-piperidin]-2-one] | 79.9 nM | 98.2 nM | 92.1 nM
24 | O=C1Nc2ccc(Cl)cc2C12CCN(CCOc1cnc(C3(CO)CC3)nc1)CC2 [Compound 333, 5-chloro-1′-[2-({2-[1-(hydroxymethyl)cyclopropyl]pyrimidin-5-yl}oxy)ethyl]-1,2-dihydrospiro[indole-3,4′-piperidin]-2-one] | 152 nM | 98.6 nM | 205 nM
25 | CP(C)(=O)C1(c2ccc(OCCN3CCC4(CC3)C(=O)Nc3ccc(Cl)cc34)cc2)CC1 [Compound 343, 5-chloro-1′-(2-{4-[1-(dimethylphosphoryl)cyclopropyl]phenoxy}ethyl)-1,2-dihydrospiro[indole-3,4′-piperidin]-2-one] | 174 nM | 431 nM | 203 nM
